Laboratory results taken from patent US9586914B2, “Modulators of C3a receptors” (THE UNIVERSITY OF QUEENSLAND, priority 2011, dated 2017).
“Also recorded” adds a separate entry of the source.

How the values were obtained:
[1] = tested on: human kidney tubule cells; assay: ELISA of cytokines from human kidney tubule cells; format: cell-based; conditions: for IL-8: 0 μM gives 1.8 ± 0.3; for IL-6: 0 μM gives 2.4 ± 0.4; for TNF: 0 μM gives 10.1 ± 2; for GMCSF (pg/ml/ml): 0 μM gives 71.3 ± 23; for Fibronectin: 0 μM gives 75.2 ± 29
Experimental: Human renal cortical tissue (10 g) was minced finely, washed several times and agitated for 20 minutes at 37° C. in a Krebs-Henseleit buffer (KHB) containing collagenase type II (1 mg/mL), Cold KHB was added and the solution passed through a 297 μm sieve (50 Mesh, Sigma). After washing three times the tubular fragments were re-suspended in 45% percoll-KHB and centrifuged at 20000×g. A high density band, previously shown to be tubule fragments, was removed and cultured in a serum free, hormonally defined DMEM/F12 media (containing 10 ng/mL epidermal growth factor, 5 μg/mL insulin, […] transferrin, 50 nM hydrocortisone, […] prostaglandin E1, 50 nM selenium and 5 pM triiodothyronine). All experiments were performed on confluent passage 2 HTEC made quiescent by two washes followed by incubation for 24 h in serum and growth factor free DMEM/F12 media. These cells were incubated with C3aR agonists and antagonists.
Supernatant and lysates from cell culture treatment samples were collected and stored separately at −20° C. until further use. Human IL1B, IL8, IL6 and TNF levels were determined using the respective OptEIA™ ELISA kit (BD Biosciences, San Diego, USA) according to the manufacturer's instructions. The readings were recorded on a FLUOstar Optima (BMG LabTechnologies, Offenburg, Germany).

[2] = tested on: IL1B, IL8, CCL3, EGR1, FOSB and TNF gene expression in HMDMs; assay: Regulation of inflammatory genes in HMDM (qRT-PCR); format: cell-based, human; conditions: HMDMs, 300 nM, 30 minutes; qRT-PCR, fold change from control
Source text: Human monocyte-derived macrophages (HMDMS) were isolated from buffy coat of anonymous donors provided by the Australian Red Cross Blood Service at Kelvin Grove, Queensland, Australia. White blood cells were separated from other blood components into different layers using Ficoll-Paque Plus Density Centrifugation (GE Healthcare Bio-Science, Uppsala, Sweden) according to manufacturer's instruction. The isolated white blood cells were repeatedly washed with ice-cold water to remove contaminating erythrocytes. CD14^+ monocytes were positively selected from white blood cells using CD14^+ Macs Magnetic Beads (Miltenyi biotech, Auburn, Calif., USA) after successive magnetic sorting and washings. CD14^+ monocytes (1.5×10^6 cells/mL) were seeded in 10 mL of IMDM supplemented with 10% fetal calf serum (FBS), 10 U/mL streptomycin, 10 U/mL penicillin and 2 mmol L-glutamine (Invitrogen). To generate HMDMS, […] of recombinant human macrophage colony stimulating factor (M-CSF) (Peprotech Inc., rocky Hill, N.J., USA) was added for differentiation. HMDMS were maintained at 37° C. in a humidified incubator with 5% CO2 for a week to fully differentiate. At day 7, the adhered HMDMS were harvested by gentle scraping in saline solution.
HMDMs (2×10^6) in 2 mL of IMDM medium were transferred into each well on a 6-well plate. The cells were left to incubate for 6 h to allow adhesion before being serum starved in serum free IMDM to reduce background noise of the C3a treatment. In the time response experiment, cells were treated with 10 nM of C3a or agonist (compound 8 or 64) for 0.5, 1, 2 or 6 h. In concentration response experiments, cells were treated with 1, 10, 100 or 300 nM for 1 h. To prepare the samples for the microarray experiments, cells were treated with agonist at 100-300 nM for 30 min or 1 h in the absence or presence of the antagonist (e.g. SB-290157 or antagonists). […] Cells were washed with saline solution at the end of each treatment before the RNA extraction step.
Total RNA was extracted from cells using RNeasy Mini Plus kit (Qiagen, USA) according to the manufacturer's instructions. The concentration of the RNA was determined by measuring absorbance at λ=260/280 […] on a nanodrop spectrophotometer (Thermo Scientific), according to the manufacturer's instructions.
Total RNA (2-5 μg) was reverse transcribed with Superscript III (Invitrogen, USA) using random oligo dT primer. Reagents were incubated (50 min, 50° C.; then 10 min, 70° C.) in thermal cyclers (Bio-Rad) to complete the reaction, cDNA samples were stored at −20° C. until further use. All RNA work was performed on ice (4° C.) to prevent degradation of the RNA samples.
cDNA (0.5 μg) samples were prepared with 5 μL SYBR® Green PCR master mix (Applied Biosystems™, CA, USA), 2 μL relevant primers (2 μM) and 1 μL dH2O before being analysed using an ABI 7900HT Fast Real-Time PCR System (Applied Biosystems™, CA, USA) according to the manufacturer's specifications. Fluorescence data was collected during the extension phase (60° C.). The concentration response data for each sample was then normalised against the same data for control housekeeping gene, (18S) to quantify and generate gene expression data. All samples were done in at least duplicate. Primers were designed using the Primer-BLAST software (National Center for Biotechnology Information, USA). Primers contained, amplicons that cross exon-exon boundaries to prevent amplification of genomic DNA. […]

CC(C)C[C@H](NC(=O)c1c[nH]c2ccccc12)c1nc(C(=O)N[C@@H](CCCNC(=N)N)C(=O)O)co1 [Compound 8, 3-Indole Carboxylic Acid-Leucine-Oxazole-Arginine-OH]
IL-8 ([1]; compound 8 at 1 μM): 1.9 ± 0.4 ng/mL
IL-6 ([1]; compound 8 at 1 μM): 2.5 ± 0.1 ng/mL
TNF ([1]; compound 8 at 1 μM): 9.9 ± 1 pg/mL
GMCSF (pg/ml/ml) ([1]; compound 8 at 1 μM): 74.6 ± 7.1 pg/ml/ml
Fibronectin ([1]; compound 8 at 1 μM): 89.6 ± 11 ng/mL
IL-8 ([1]; compound 8 at 2.5 μM): 5.7 ± 2 ng/mL
IL-6 ([1]; compound 8 at 2.5 μM): 8.2 ± 0.6 ng/mL
TNF ([1]; compound 8 at 2.5 μM): 12.3 ± 1 pg/mL
GMCSF (pg/ml/ml) ([1]; compound 8 at 2.5 μM): 142.8 ± 10.9 pg/ml/ml
Fibronectin ([1]; compound 8 at 2.5 μM): 89.0 ± 5 ng/mL
IL-8 ([1]; compound 8 at 5 μM): 31.5 ± 5 ng/mL
IL-6 ([1]; compound 8 at 5 μM): 30.9 ± 2.5 ng/mL
TNF ([1]; compound 8 at 5 μM): 76.6 ± 13 pg/mL
GMCSF (pg/ml/ml) ([1]; compound 8 at 5 μM): 738.0 ± 127.6 pg/ml/ml
Fibronectin ([1]; compound 8 at 5 μM): 149.5 ± 21 ng/mL
IL-8 ([1]; compound 8 at 10 μM): 30.4 ± 8 ng/mL
IL-6 ([1]; compound 8 at 10 μM): 33.5 ± 5 ng/mL
TNF ([1]; compound 8 at 10 μM): 117.8 ± 53 pg/mL
GMCSF (pg/ml/ml) ([1]; compound 8 at 10 μM): 1056 ± 147.8 pg/ml/ml
Fibronectin ([1]; compound 8 at 10 μM): 172.9 ± 20 ng/mL
IL-8 ([1]; compound 8 at 20 μM): 76.4 ± 18 ng/mL
IL-6 ([1]; compound 8 at 20 μM): 55.8 ± 12 ng/mL
TNF ([1]; compound 8 at 20 μM): 277.9 ± 28 pg/mL
GMCSF (pg/ml/ml) ([1]; compound 8 at 20 μM): 2853 ± 399 pg/ml/ml
Fibronectin ([1]; compound 8 at 20 μM): 200.9 ± 28 ng/mL
Induction at 40 μM, Fibronectin ([1]; compound 8 at 40 μM vs 0 μM): 2-fold
Induction at 40 μM, GMCSF ([1]; compound 8 at 40 μM vs 0 μM): 80-fold
Induction at 40 μM, IL-6 ([1]; compound 8 at 40 μM vs 0 μM): 40-fold
Induction at 40 μM, IL-8 ([1]; compound 8 at 40 μM vs 0 μM): 75-fold
Induction at 40 μM, TNF ([1]; compound 8 at 40 μM vs 0 μM): 75-fold
IL-8 ([1]; compound 8 at 40 μM): 135.0 ± 9 ng/mL
IL-6 ([1]; compound 8 at 40 μM): 96.9 ± 29 ng/mL
TNF ([1]; compound 8 at 40 μM): 757.8 ± 13 pg/mL
GMCSF (pg/ml/ml) ([1]; compound 8 at 40 μM): 5790 ± 726 pg/ml/ml
Fibronectin ([1]; compound 8 at 40 μM): 148.0 ± 32 ng/mL
Secretion of inflammatory cytokines ([1]; primary human kidney cells): induces secretion of inflammatory cytokines
Induction of gene expression of IL1B, IL8, CCL3, EGR1, FOSB and TNF [2]: significantly induce gene expression; also recorded: induced expression of inflammatory genes
